In patent US20200029601A1, “PHENYLACRYLIC ACID SOLUTION FOR BROAD SPECTRUM ANTIMICROBIAL APPLICATIONS FOR FOODSTUFFS” (KLF LABS LLC, priority 2018, published 2020):
Read-outs that look alike come from different tables or passages of the source.

How the values were obtained:
[1] = tested on: Aspergillus brasiliensis; settings: 1000 ppm, pH 4.0
Description: (§1) To determine ascertain bactericidal and fungicidal qualities of the present food preservative solution, certain embodiments containing a combination of phenylacrylic acid, sorbic acid, a potentiation agent and a stabilization agent were subjected to a modified version of the United States Pharmocopedia (USP) antimicrobial efficacy test found in chapter 51 of the USP 40 manual. All embodiments were between pH 3.95-4.05.
(§2) To each of the embodiments, 1×10^6 cells from the following spoilage organisms; Escheria coli, Listeria monocytogenes, Salmonella entericia, Aspergillus flavus, Aspergillus brasiliensis, and Zygosaccharomyces bailii. The microbials were homogeneously dispersed in the various embodiments. Small aliquots are taken from the inoculated samples at the appropriate time point is serial diluted and plated. The plates are incubated, and growth is then enumerated. The counts are multiplied by the appropriate dilution factor to give a viable cell count at that time point.

[2] = tested on: Aspergillus flavus; settings: 1000 ppm, pH 4.0
Description: as §1, §2

[3] = tested on: Escheria coli; settings: 1000 ppm, pH 4.0
Description: as §1, §2

[4] = tested on: Listeria monocytogenes; settings: 1000 ppm, pH 4.0
Description: as §1, §2

[5] = tested on: Salmonella entericia; settings: 1000 ppm, pH 4.0
Description: as §1, §2

[6] = tested on: Zygosaccharomyces bailii; settings: 1000 ppm, pH 4.0
Description: as §1, §2

[7] = tested on: Saccharomyces cerevisiae, Candida parapsilosis, Zygosaccharomyces rouxii, and Zygosaccharomyces bailii; test: Experimental Test 3, summary statements over the yeast species; format: cell-based; settings: Tables 12-15; pH 3.1-7.5
Experimental: The media was then sterilized by steam autoclaving the solution for 15 minutes at 121° C. and the media was placed into 3 96 cell plates and pH using either 0.1N HCl or 0.1N NaOH to pH values of 3.1, 5.6, 6.0, 6.5, 7.0, and 7.5.
Three exemplary embodiment solutions were added and serial diluted into a series of treatment wells and 0.5 McFarland Standard's worth of yeast cells were added to each well. The plates were incubated at 32° C. for 48 hours and then the OD was read at 600 nm. The percent inhibition was graphed as a percentage of the following formula indicated in Equation 1.

Question: What does the source list for `CC=CC=CC(=O)O` [Sorbic Acid, 2,4 hexadienoic acid]?
Answer: Microbial plate count ([1]; Test Day 0): 630000 CFU/g; Microbial plate count ([1]; Test Day 0.5): 230000 CFU/g; Microbial plate count ([1]; Test Day 1): 520 CFU/g; Microbial plate count ([1]; Test Day 3): <10 CFU/g; Microbial plate count ([1]; Test Day 7): <10 CFU/g; Microbial plate count ([2]; Test Day 0): 510000 CFU/g; Microbial plate count ([2]; Test Day 0.5): 8500 CFU/g; Microbial plate count ([2]; Test Day 1): <10 CFU/g; Microbial plate count ([2]; Test Day 3): <10 CFU/g; Microbial plate count ([2]; Test Day 7): <10 CFU/g; Microbial plate count ([3]; Test Day 0): 580000 CFU/g; Microbial plate count ([3]; Test Day 0.5): <10 CFU/g; Microbial plate count ([3]; Test Day 1): <10 CFU/g; Microbial plate count ([3]; Test Day 3): <10 CFU/g; Microbial plate count ([3]; Test Day 7): <10 CFU/g; Microbial plate count ([4]; Test Day 0): 620000 CFU/g; Microbial plate count ([4]; Test Day 0.5): <10 CFU/g; Microbial plate count ([4]; Test Day 1): <10 CFU/g; Microbial plate count ([4]; Test Day 3): <10 CFU/g; Microbial plate count ([4]; Test Day 7): <10 CFU/g; Microbial plate count ([5]; Test Day 0): 800000 CFU/g; Microbial plate count ([5]; Test Day 0.5): <10 CFU/g; Microbial plate count ([5]; Test Day 1): <10 CFU/g; Microbial plate count ([5]; Test Day 3): <10 CFU/g; Microbial plate count ([5]; Test Day 7): <10 CFU/g; Microbial plate count ([6]; Test Day 0): 480000 CFU/g; Microbial plate count ([6]; Test Day 0.5): 130000 CFU/g; Microbial plate count ([6]; Test Day 1): 1600 CFU/g; Microbial plate count ([6]; Test Day 3): 120 CFU/g; Microbial plate count ([6]; Test Day 7): <10 CFU/g

Question: Which “increase of the efficacy of potassium sorbate by addition of mandelic acid” value [7] does the source give for `O=C(O)C(O)c1ccccc1` (stereo not shown) [mandelic acid] here?
Answer: 2-10 ×
